According to PubChem BioAssay AID328 (DTP/NCI, 2004):
“And” between values parts separate entries of the source, which are not always exact repeats. Equal entries are not always repeated. Toxic doses and inconclusive results are not listed. Residues, ends and D or L forms follow the SMILES beside them. *: point of attachment. Cbz = O=C(OCc1ccccc1)*; Bn = c1ccc(C*)cc1

Test system: BDF1 mice, P388 leukemia ip, median survival T/C
Assay: NCI In Vivo Anticancer Drug Screen. Data for tumor model P388 Leukemia (intraperitoneal) in B6D2F1 (BDF1) mice
Details: endpoint: median survival time, higher = longer survival
Procedure, shortened: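 T/C = treated-group survival ÷ vehicle-control survival; tumour transplanted into mice before dosing.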

[1] = dose: 12.5 mg/kg/injection, schedule: Q01DX009 (ip), vehicle: saline
[2] = dose: 25.0 mg/kg/injection, schedule: Q01DX009 (ip), vehicle: Klucel (hydroxypropylcellulose) (HPC)
[3] = dose: 50.0 mg/kg/injection, schedule: Q01DX009 (ip), vehicle: Klucel (hydroxypropylcellulose) (HPC)
[4] = dose: 50.0 mg/kg/injection, schedule: Q01DX009 (ip), vehicle: saline
[5] = dose: 100.0 mg/kg/injection, schedule: Q01DX009 (ip), vehicle: Klucel (hydroxypropylcellulose) (HPC)
[6] = dose: 400.0 mg/kg/injection, schedule: Q04DX003 (ip), vehicle: saline
[7] = dose: 50.0 mg/kg/injection, schedule: Q01DX009 (ip), vehicle: saline with Tween-80
[8] = dose: 100.0 mg/kg/injection, schedule: Q01DX009 (ip), vehicle: saline with Tween-80
[9] = dose: 100.0 mg/kg/injection, schedule: Q04DX003 (ip), vehicle: saline with Tween-80
[10] = dose: 200.0 mg/kg/injection, schedule: Q04DX003 (ip), vehicle: saline with Tween-80
[11] = dose: 100.0 mg/kg/injection, schedule: Q04DX003 (ip), vehicle: Klucel (hydroxypropylcellulose) (HPC)
[12] = dose: 400.0 mg/kg/injection, schedule: Q04DX003 (ip), vehicle: saline with Tween-80

CC(=O)O.CC(=O)O.CC(=O)O.CC(=O)O.[Rh].[Rh]
T/C (dose: 5.56 mg/kg/injection, schedule: Q01DX009 (ip), vehicle: saline): 100 % of control and 122 % of control | T/C (dose: 8.33 mg/kg/injection, schedule: Q01DX009 (ip), vehicle: saline): 100 % of control | T/C [1]: 118 % of control | T/C (dose: 18.7 mg/kg/injection, schedule: Q01DX009 (ip), vehicle: saline): 90 % of control and 111 % of control

N[C@H](C(=O)O)[C@H]1ON=C(Cl)[C@@H]1O
T/C (dose: 0.5 mg/kg/injection, schedule: Q01DX009 (ip), vehicle: saline with Tween-80): 105 % of control | T/C (dose: 1.0 mg/kg/injection, schedule: Q01DX009 (ip), vehicle: saline with Tween-80): 105 % of control | T/C (dose: 2.0 mg/kg/injection, schedule: Q01DX009 (ip), vehicle: saline with Tween-80): 117 % of control | T/C (dose: 6.25 mg/kg/injection, schedule: Q01DX009 (ip), vehicle: saline): 160 % of control | T/C (dose: 8.0 mg/kg/injection, schedule: Q01DX009 (ip), vehicle: saline): 160 % of control | T/C (dose: 12.5 mg/kg/injection, schedule: Q01DX009 (ip), vehicle: Klucel (hydroxypropylcellulose) (HPC)): 239 % of control | T/C [1]: 165 % of control | T/C (dose: 12.5 mg/kg/injection, schedule: Q04DX003 (ip), vehicle: saline): 96 % of control | T/C (dose: 16.0 mg/kg/injection, schedule: Q01DX009 (ip), vehicle: saline): 168 % of control | T/C [2]: 195 % of control | T/C (dose: 25.0 mg/kg/injection, schedule: Q01DX009 (ip), vehicle: saline): 195 % of control | T/C (dose: 25.0 mg/kg/injection, schedule: Q04DX003 (ip), vehicle: saline): 111 % of control | T/C (dose: 32.0 mg/kg/injection, schedule: Q01DX009 (ip), vehicle: saline): 167 % of control | T/C (dose: 44.0 mg/kg/injection, schedule: Q01DX009 (ip), vehicle: other): 158 % of control | T/C [3]: 188 % of control | T/C [4]: 215 % of control | T/C (dose: 50.0 mg/kg/injection, schedule: Q04DX003 (ip), vehicle: saline): 111 % of control | T/C (dose: 64.0 mg/kg/injection, schedule: Q01DX009 (ip), vehicle: saline): 193 % of control | T/C [5]: 206 % of control | T/C (dose: 100.0 mg/kg/injection, schedule: Q01DX009 (ip), vehicle: other): 170 % of control | T/C (dose: 100.0 mg/kg/injection, schedule: Q01DX009 (ip), vehicle: saline): 110 % of control | T/C (dose: 128.0 mg/kg/injection, schedule: Q01DX009 (ip), vehicle: saline): 228 % of control | T/C (dose: 200.0 mg/kg/injection, schedule: Q01DX009 (ip), vehicle: saline): 90 % of control | T/C (dose: 250.0 mg/kg/injection, schedule: Q01DX009 (ip), vehicle: saline): 192 % of control | T/C (dose: 256.0 mg/kg/injection, schedule: Q01DX009 (ip), vehicle: saline): 270 % of control | T/C [6]: 238 % of control

COC1OCC(N=[N+]=[N-])C2OC12 (stereo not given)
T/C (dose: 25.0 mg/kg/injection, schedule: Q01DX009 (ip), vehicle: water): 96 % of control | T/C (dose: 50.0 mg/kg/injection, schedule: Q01DX009 (ip), vehicle: water): 102 % of control | T/C (dose: 100.0 mg/kg/injection, schedule: Q01DX009 (ip), vehicle: water): 119 % of control | T/C (dose: 200.0 mg/kg/injection, schedule: Q01DX009 (ip), vehicle: water): 102 % of control

CC1(C)CC(=O)C2=C(C1)OC1=C(C(=O)CC(C)(C)C1)C2c1cccc([N+](=O)[O-])c1
T/C [7]: 104 % of control | T/C [8]: 123 % of control | T/C (dose: 200.0 mg/kg/injection, schedule: Q01DX009 (ip), vehicle: saline with Tween-80): 106 % of control

COc1cc(Cc2nccc3cc(OC)c(OC)cc23)c([N+](=O)[O-])cc1OC
T/C (dose: 100.0 mg/kg/injection, schedule: Q04DX003 (ip), vehicle: saline sonified): 90 % of control | T/C (dose: 200.0 mg/kg/injection, schedule: Q04DX003 (ip), vehicle: saline sonified): 95 % of control | T/C (dose: 400.0 mg/kg/injection, schedule: Q04DX003 (ip), vehicle: saline sonified): 90 % of control

Cc1nc2ccccc2c(Cl)c1C
T/C [2]: 102 % of control | T/C [3]: 105 % of control | T/C [5]: 103 % of control

CCCCCCCCCCCCCCCC[N+]1(CC)CCCC1
T/C (dose: 0.19 mg/kg/injection, schedule: Q01DX009 (ip), vehicle: saline): 120 % of control | T/C (dose: 0.39 mg/kg/injection, schedule: Q01DX009 (ip), vehicle: saline): 104 % of control

O=C(Nc1cccc2c(OC(=O)C(Cl)Cl)c(N=Nc3ccc(S(=O)(=O)Nc4nccs4)cc3)cc(N=Nc3ccc(S(=O)(=O)Nc4nccs4)cc3)c12)C(Cl)Cl (tested in a mixture with another compound)
T/C (dose: 50.0 mg/kg/injection, schedule: Q01DX005 (ip), vehicle: saline with Tween-80): 103 % of control | T/C [7]: 110 % of control | T/C (dose: 100.0 mg/kg/injection, schedule: Q01DX005 (ip), vehicle: saline with Tween-80): 103 % of control | T/C [8]: 124 % of control

C[N+](C)(Cn1nc(Cl)c2ccc([N+](=O)[O-])cc21)Cn1nc(Cl)c2ccc([N+](=O)[O-])cc21
T/C [9]: 100 % of control | T/C [10]: 108 % of control

O=C(NC(CSCc1ccccc1)C(=O)NC(Cc1ccc(O)cc1)C(=O)O)OCc1ccccc1 (stereo not given) (Cbz-Cys(Bn)-Tyr-OH; configuration not given here)
T/C (dose: 100.0 mg/kg/injection, schedule: Q01DX009 (ip), vehicle: gum acacia): 95 % of control | T/C (dose: 100.0 mg/kg/injection, schedule: Q04DX003 (ip), vehicle: gum acacia): 88 % of control | T/C (dose: 200.0 mg/kg/injection, schedule: Q01DX009 (ip), vehicle: gum acacia): 95 % of control | T/C (dose: 200.0 mg/kg/injection, schedule: Q04DX003 (ip), vehicle: gum acacia): 107 % of control | T/C (dose: 400.0 mg/kg/injection, schedule: Q01DX009 (ip), vehicle: gum acacia): 100 % of control | T/C (dose: 400.0 mg/kg/injection, schedule: Q04DX003 (ip), vehicle: gum acacia): 92 % of control

CC(C)(CBr)C(=O)N1CCN(C(=O)C(C)(C)CBr)CC1
T/C (dose: 20.0 mg/kg/injection, schedule: Q04DX003 (ip), vehicle: Klucel (hydroxypropylcellulose) (HPC)): 150 % of control | T/C (dose: 30.0 mg/kg/injection, schedule: Q04DX003 (ip), vehicle: Klucel (hydroxypropylcellulose) (HPC)): 159 % of control and 163 % of control | T/C (dose: 44.0 mg/kg/injection, schedule: Q04DX003 (ip), vehicle: Klucel (hydroxypropylcellulose) (HPC)): 163 % of control and 165 % of control | T/C [11]: 195 % of control and 200 % of control | T/C (dose: 150.0 mg/kg/injection, schedule: Q04DX003 (ip), vehicle: Klucel (hydroxypropylcellulose) (HPC)): 175 % of control

CCOC(=O)c1cccc(OP(=O)(N(C)C)N(C)C)c1
T/C [7]: 108 % of control | T/C [8]: 116 % of control

Cc1oc(-c2ccccc2)nc1C(=O)O
T/C [9]: 106 % of control | T/C [10]: 100 % of control | T/C [12]: 102 % of control

CC1CC2=CC(=O)C=CC2(C)C2CCC3(C)C(O)CCC3C12 (stereo not given)
T/C (dose: 1.56 mg/kg/injection, schedule: Q01DX009 (ip), vehicle: Klucel (hydroxypropylcellulose) (HPC)): 86 % of control | T/C (dose: 3.12 mg/kg/injection, schedule: Q01DX009 (ip), vehicle: Klucel (hydroxypropylcellulose) (HPC)): 107 % of control | T/C (dose: 6.25 mg/kg/injection, schedule: Q01DX009 (ip), vehicle: Klucel (hydroxypropylcellulose) (HPC)): 99 % of control | T/C [2]: 95 % of control | T/C [3]: 91 % of control | T/C [4]: 90 % of control | T/C [5]: 95 % of control and 97 % of control | T/C [11]: 91 % of control | T/C (dose: 200.0 mg/kg/injection, schedule: Q01DX009 (ip), vehicle: Klucel (hydroxypropylcellulose) (HPC)): 96 % of control and 97 % of control | T/C (dose: 200.0 mg/kg/injection, schedule: Q04DX003 (ip), vehicle: Klucel (hydroxypropylcellulose) (HPC)): 95 % of control | T/C (dose: 400.0 mg/kg/injection, schedule: Q01DX009 (ip), vehicle: Klucel (hydroxypropylcellulose) (HPC)): 86 % of control and 88 % of control | T/C (dose: 400.0 mg/kg/injection, schedule: Q04DX003 (ip), vehicle: Klucel (hydroxypropylcellulose) (HPC)): 87 % of control

CC1=CC(=O)C=CC1(C)C(Cl)Cl (stereo not given)
T/C [9]: 90 % of control | T/C [10]: 105 % of control | T/C [12]: 100 % of control

COc1ccc(C(O)CN)cc1 (stereo not given)
T/C (dose: 100.0 mg/kg/injection, schedule: Q04DX003 (ip), vehicle: saline): 98 % of control | T/C (dose: 200.0 mg/kg/injection, schedule: Q04DX003 (ip), vehicle: saline): 97 % of control | T/C [6]: 96 % of control
